US20080214556A1 (priority 2007, published 2008)
Read-outs that look alike come from different tables or passages of the source.

Assays:
[1] = system: patients with non-ST elevation acute coronary syndrome; experiment: MERLIN-TIMI 36: efficacy endpoints (CV death, MI, recurrent ischemia, failure of therapy); assay type: in vivo, human
Description: The MERLIN-TIMI 36 primary efficacy endpoint (ITT) time from randomization to first occurrence of cardiovascular death, myocardial infarction, or recurrent ischemia data is shown in Table 11 below (and FIGS. 4 and 5).
The MERLIN-TIMI 36 major secondary efficacy endpoint (ITT) time from randomization to first occurrence of cardiovascular death, myocardial infarction, or severe recurrent ischemia data is shown in Table 12 below (and FIGS. 6 and 7).
The secondary efficacy endpoint time from randomization to failure of therapy (cardiovascular death, […], recurrent ischemia, positive Holter for ischemia, New/Worsening heart failure, or early+ETT) data from MERLIN-TIMI 36 is shown in Table 14 below (and FIGS. 8 and 9).
The secondary efficacy endpoint (ITT) incidence at 30 days of cardiovascular death, myocardial infarction, severe recurrent ischemia, or positive Holter for ischemia data from MERLIN-TIMI 36 is shown in Table 15 below.
The data for time from randomization to first occurrence of cardiovascular death or myocardial infarction from MERLIN-TIMI 36 is shown in Table 20 below. For relative risk of CV death, MI, or recurrent ischemia by subgroup, see FIG. 10. For relative risk of CV death, MI, or severe recurrent ischemia by subgroup, see FIG. 11. For relative risks of failure of therapy by subgroup, see FIG. 12.

[2] = system: patients with non-ST elevation acute coronary syndrome; experiment: MERLIN-TIMI 36: HbA1c and hyperglycemia; assay type: in vivo, human
Description: The proportion of patients in the MERLIN-TIMI 36 study with HbA1C≧7% is shown in Table 28 below (and see FIG. 15).
The proportion of patients with HbA1C≧7% (with diabetes or no diabetes) at various times during the MERLIN-TIMI 36 study is shown in Table 29 below (and FIG. 16).
HbA1c data are reported as least-square means. Patients categorized as “diabetic” had been diagnosed as diabetic before or at the time of randomization. Patients categorized as “no diabetes” had not been diagnosed as diabetic before or at the time of randomization. Some patients characterized as “no diabetes” may have been diagnosed as “diabetic” during the trial; however, these patients are still listed in the “no diabetes” category in FIG. 4B.

[3] = system: patients with non-ST elevation acute coronary syndrome; experiment: MERLIN-TIMI 36: arrhythmias on 7 day continuous ECG (Holter) recording; assay type: in vivo, human
Procedure: The safety endpoint data for incidence of clinically significant arrhythmias during 7 day Holter monitoring from MERLIN-TIMI 36 is shown in Table 24 below.
Continuous ECG (Holter) recording was performed for the first 7 days after randomization. Because of the known prolongation of the QT interval with ranolazine, analyses of a prespecified set of arrhythmias were a major objective of the trial. All arrhythmias were evaluated in the TIMI ECG Core Laboratory by cardiologists blinded to treatment and outcomes.
Continuous ECG (cECG or Holter) recording was performed for the first 7 days after randomization. Prespecified arrhythmia analyses were evaluated by a core laboratory blinded to treatment and outcomes.

[4] = system: patients with non-ST elevation acute coronary syndrome; experiment: MERLIN-TIMI 36: adverse events; assay type: in vivo, human; details: n = 3268
[5] = system: patients with non-ST elevation acute coronary syndrome; experiment: MERLIN-TIMI 36: Seattle Angina Questionnaire scores at 4 months; assay type: in vivo, human; details: ITT, N 2558
Description: The MERLIN-TIMI 36 secondary efficacy endpoint (ITT) Seattle Angina Questionnaire scores at 4 months for anginal frequency scale are shown in Table 16 below, and scores for physical limitation scale are shown in Table 17 below.

[6] = system: patients with non-ST elevation acute coronary syndrome; experiment: MERLIN-TIMI 36: ischemia on Holter / continuous ECG (CECG) monitoring; assay type: in vivo, human; details: ranolazine vs placebo
Procedure: At randomization, 6355 patients (99%) had 3-lead CECG monitoring initiated (median duration 6.9 days). The primary CECG endpoint was the rate of ST dep≧1 mm from baseline lasting ≧1 minute with heart rate at onset <100 bpm. Exploratory analyses using ST dep≧0.5 mm were also performed.

[7] = system: patients with non-ST elevation acute coronary syndrome
[8] = ITT, n = 3279, major secondary efficacy endpoint
[9] = ITT, n = 3279, primary efficacy endpoint
[10] = patients with DM treated with ranolazine
[11] = placebo vs ranolazine, cECG monitoring

COc1ccccc1OCC(O)CN1CCN(CC(=O)Nc2c(C)cccc2C)CC1 (racemic) [Ranolazine, (±)—N-(2,6-dimethylphenyl)-4-[2-hydroxy-3-(2-methoxyphenoxy)-propyl]-1-piperazineacetamide]
Incidence (Kaplan-Meier estimate) of CV death or MI ([1]; 30 days, ITT): 4.2%
Incidence (Kaplan-Meier estimate) of CV death, MI, or recurrent ischemia ([1]; 30 days, ITT): 7.7%
Incidence (Kaplan-Meier estimate) of CV death, MI, or severe recurrent ischemia ([1]; 30 days, ITT): 7.5%
Incidence (Kaplan-Meier estimate) of CV death or MI ([1]; 60 days, ITT): 5.3%
Incidence (Kaplan-Meier estimate) of CV death, MI, or recurrent ischemia ([1]; 60 days, ITT): 9.9%
Incidence (Kaplan-Meier estimate) of CV death, MI, or severe recurrent ischemia ([1]; 60 days, ITT): 9.4%
Endpoint-defining events: CV death (%) ([1]; ITT, n = 3279, CV death or MI endpoint): 30.5%
Pts with events: first occurrence of CV death or MI ([1]; ITT, n = 3279, additional efficacy endpoint): 338
Endpoint-defining events: CV death (%) [1, 8]: 14.6%
Pts with events: first occurrence of CV death, MI, or severe recurrent ischemia [1, 8]: 602
Endpoint-defining events: CV death (%) [1, 9]: 12.5%
Pts with events: first occurrence of CV death, MI, or recurrent ischemia [1, 9]: 695
Pts with events: CV death, MI, severe RI, or positive Holter for ischemia (%) ([1]; incidence at 30 days, ITT, n = 3279): 23%
Primary endpoint occurred in (% of patients) ([1]; ranolazine group, Example 7): 21.8%
HR for cardiovascular death or MI ([1]; ranolazine vs placebo): 0.99
HR for recurrent ischemia ([1]; ranolazine vs placebo): 0.87
HR for the primary endpoint ([1]; ranolazine vs placebo): 0.92
Relative risk (SE): CV death, MI, or severe recurrent ischemia ([1]; ranolazine vs placebo, ITT, major secondary efficacy endpoint): 0.982 (0.06)
HR for worsening angina ([1]; women, ranolazine vs placebo): 0.61
Patients with HbA1C ≧ 7% (%) ([2]; Baseline (In-Hospital visit prior to randomization), all patients dosed): 24%
Patients with HbA1C ≧ 7% (%) ([2]; Diabetes at enrollment, n = 1098, Baseline): 57%
Patients with HbA1C ≧ 7% (%) ([2]; Diabetes at enrollment, n = 1098, Final Visit): 42%
Patients with HbA1C ≧ 7% (%) ([2]; Diabetes at enrollment, n = 1098, Month 4): 41%
Patients with HbA1C ≧ 7% (%) ([2]; Diabetes at enrollment, n = 1098, Month 8): 44%
Patients with HbA1C ≧ 7% (%) ([2]; Diabetes at enrollment, n = 1098, Month 16): 48%
Patients with HbA1C ≧ 7% (%) ([2]; Final Visit, all patients dosed): 17%
Patients with HbA1C ≧ 7% (%) ([2]; Month 4, all patients dosed): 17%
Patients with HbA1C ≧ 7% (%) ([2]; Month 8, all patients dosed): 18%
Patients with HbA1C ≧ 7% (%) ([2]; Month 16, all patients dosed): 20%
Patients with HbA1C ≧ 7% (%) ([2]; No Diabetes at enrollment, n = 2170, Baseline): 6%
Patients with HbA1C ≧ 7% (%) ([2]; No Diabetes at enrollment, n = 2170, Final Visit): 6%
Patients with HbA1C ≧ 7% (%) ([2]; No Diabetes at enrollment, n = 2170, Month 4): 5%
Patients with HbA1C ≧ 7% (%) ([2]; No Diabetes at enrollment, n = 2170, Month 8): 6%
Patients with HbA1C ≧ 7% (%) ([2]; No Diabetes at enrollment, n = 2170, Month 16): 7%
HbA1c ([2]; at 4 months, 4306 patients with serial measurements, least-square means): 5.9%
HR for worsening of hyperglycemia ([2]; diabetic patients, ranolazine vs placebo): 0.63
HbA1c after decline (declined to) [2, 10]: 6.8
HbA1c before decline (declined from) [2, 10]: 7.2
Patients achieving HbA1c<7% ([2]; patients with DM, at 4 months): 59%
HR for new fasting glucose >110 mg/dL or HbA1c≧6% ([2]; patients without DM, ranolazine vs placebo): 0.68
Any Clinically Significant Arrhythmia during 7 Day Holter (%) ([3]; All Patients Dosed, n = 3268): 71.3%
Bradycardic episode during 7 Day Holter (%) ([3]; All Patients Dosed, n = 3268): 38.5%
New onset atrial fibrillation during 7 Day Holter (%) ([3]; All Patients Dosed, n = 3268): 1.7%
Supraventricular tachycardia during 7 Day Holter (%) ([3]; Any SVT >= 120 bpm, n = 3268): 43.2%
Ventricular tachycardia during 7 Day Holter (%) ([3]; Any VT >= 100 bpm >= 3 beats, n = 3268): 29.0%
Pause > 3 secs (%) ([3]; Holter, first 7 days, n = 3162): (3.1) %
VT >= 8 beats (<30 secs) (%) ([3]; Holter, first 7 days, n = 3162): (5.5) %
New-onset atrial fibrillation (% of patients) ([3]; cECG first 7 days, Example 9): 1.7%
Polymorphic VT >= 8 beats (%) ([3]; cECG monitoring): (1.2) %
Sustained VT (>=30 sec) (%) ([3]; cECG monitoring): (0.44) %
VT ≧ 8 beats (<30 sec) (%) ([3]; cECG monitoring): (5.3) %
VT ≧ 8 beats (<30 sec) (%) ([3]; cECG monitoring, listed as ranolazine): 5.3%
Polymorphic VT >= 8 beats: Δ (%) [3, 11]: −21%
Sustained VT (>=30 sec): Δ [3, 11]: 0
VT ≧ 3 beats (≧100 b/m): Δ (%) [3, 11]: −17%
VT ≧ 4 beats (≧100 b/m): Δ (%) [3, 11]: −30%
VT ≧ 8 beats (<30 sec): Δ (%) [3, 11]: −37%
Adverse event: Angina pectoris (%) ([4]; AE summary > 4% incidence): (8%)
Adverse event: Angina unstable (%) ([4]; AE summary > 4% incidence): (10%)
Adverse event: Asthenia (%) ([4]; AE summary > 4% incidence): (5%)
Adverse event: Cardiac failure (%) ([4]; AE summary > 4% incidence): (5%)
Adverse event: Chest pain (%) ([4]; AE summary > 4% incidence): (11%)
Adverse event: Constipation (%) ([4]; AE summary > 4% incidence): (9%)
Adverse event: Dizziness (%) ([4]; AE summary > 4% incidence): (13%)
Adverse event: Fatigue (%) ([4]; AE summary > 4% incidence): (4%)
Adverse event: Headache (%) ([4]; AE summary > 4% incidence): (7%)
Adverse event: Hypotension (%) ([4]; AE summary > 4% incidence): (5%)
Adverse event: Nausea (%) ([4]; AE summary > 4% incidence): (9%)
Serious adverse event: ACS (%) ([4]; SAEs ≧ 1% incidence): (2%)
Serious adverse event: Acute MI (%) ([4]; SAEs ≧ 1% incidence): (3%)
Serious adverse event: Angina pectoris (%) ([4]; SAEs ≧ 1% incidence): (4%)
Serious adverse event: Angina unstable (%) ([4]; SAEs ≧ 1% incidence): (8%)
Serious adverse event: Atrial fibrillation (%) ([4]; SAEs ≧ 1% incidence): (1%)
Serious adverse event: Cardiac failure (%) ([4]; SAEs ≧ 1% incidence): (4%)
Serious adverse event: Cardiac failure congestive (%) ([4]; SAEs ≧ 1% incidence): (1%)
Serious adverse event: Chest pain (%) ([4]; SAEs ≧ 1% incidence): (2%)
Serious adverse event: MI (%) ([4]; SAEs ≧ 1% incidence): (4%)
Serious adverse event: Syncope (%) ([4]; SAEs ≧ 1% incidence): (1%)
Patients early prematurely withdrawn due to AEs (%) ([4]; Safety - All Patients Dosed): (13%)
Patients with AEs (%) ([4]; Safety - All Patients Dosed): (76%)
Patients with AEs leading to death (%) ([4]; Safety - All Patients Dosed): (5%)
Patients with serious AEs (SAEs) (%) ([4]; Safety - All Patients Dosed): (34%)
Patients with study drug-related AEs (%) ([4]; Safety - All Patients Dosed): (30%)
Seattle Angina Questionnaire, Anginal Frequency Scale: Median [5]: 100
RR for primary CECG endpoint events ([6]; >72 hours after randomization): 0.86
RR for CECG ischemic events ([6]; lower ischemic threshold of 0.5 mm): 0.91
Incidence (Kaplan-Meier estimate) of death from any cause ([7]; 30 days): 1.8%
Incidence (Kaplan-Meier estimate) of death or CV hospitalization ([7]; 30 days): 9.2%
Incidence (Kaplan-Meier estimate) of death from any cause ([7]; 60 days): 2.2%
Incidence (Kaplan-Meier estimate) of death or CV hospitalization ([7]; 60 days): 15.0%
Incidence (Kaplan-Meier estimate) of death from any cause ([7]; 180 days): 3.4%
Incidence (Kaplan-Meier estimate) of death from any cause ([7]; 360 days): 5.3%
Incidence (Kaplan-Meier estimate) of death from any cause ([7]; 540 days): 7.0%
Pts with events: death from any cause ([7]; All Patients Dosed, n = 3268): 172
Pts with events: first occurrence of death or CV hospitalization ([7]; All Patients Dosed, n = 3268): 1037
Endpoint-defining events: Death (%) ([7]; death or CV hospitalization endpoint, n = 3268): 10.7%
Endpoint-defining events: CV hospitalization (%) ([7]; human, in vivo): 89.3%
Symptomatic documented arrhythmias (% of patients) ([7]; human, in vivo): 3.0%
HR for total mortality ([7]; ranolazine vs placebo): 0.99
